# Test results as given in ChEMBL document CHEMBL1139396, “Novel N9-arenethenyl purines as potent dual Src/Abl tyrosine kinase inhibitors” (Bioorg Med Chem Lett, 2008).
# Legend:
# [1] = Volume of distribution at steady state in rat at 5 mg/kg, iv; assay type: ADME, organism-based; parameters: dose 5 mg/kg, route intravenous; details: in vivo, read-out: Vdss
# [2] = Cmax in rat at 5 mg/kg, iv; assay type: ADME, organism-based; parameters: dose 5 mg/kg, route intravenous; details: in vivo
# [3] = Oral bioavailability in rat at 5 mg/kg; assay type: ADME, organism-based; details: in vivo
# [4] = Cytotoxicity against mouse BA/F3 cells transfected with wild-type Bcr-Abl; details: BaF3
# K562 = assay: Cytotoxicity against human K562 cells transfected with wild-type Bcr-Abl
# [5] = Half life in rat at 5 mg/kg, iv; assay type: ADME, organism-based; parameters: dose 5 mg/kg, route intravenous; details: in vivo
# [6] = molecular target: Tyrosine-protein kinase ABL1 (Homo sapiens, UniProt P00519)
# [7] = molecular target: Proto-oncogene tyrosine-protein kinase Src (Homo sapiens, UniProt P12931); assay: Inhibition of human Src kinase by TR-FRET assay
# [8] = molecular target: Ephrin type-A receptor 7 (Homo sapiens) (UniProt Q15375); assay: Inhibition of EphA7
# Insulin receptor = Insulin receptor (Homo sapiens, UniProt P06213); assay: Inhibition of InsR
# Ephrin type-B receptor 4 = molecular target: T1, Ephrin type-B receptor 4 (Homo sapiens, UniProt P54760); assay: Inhibition of EphB4
# T1 sequence (P54760 whole entry): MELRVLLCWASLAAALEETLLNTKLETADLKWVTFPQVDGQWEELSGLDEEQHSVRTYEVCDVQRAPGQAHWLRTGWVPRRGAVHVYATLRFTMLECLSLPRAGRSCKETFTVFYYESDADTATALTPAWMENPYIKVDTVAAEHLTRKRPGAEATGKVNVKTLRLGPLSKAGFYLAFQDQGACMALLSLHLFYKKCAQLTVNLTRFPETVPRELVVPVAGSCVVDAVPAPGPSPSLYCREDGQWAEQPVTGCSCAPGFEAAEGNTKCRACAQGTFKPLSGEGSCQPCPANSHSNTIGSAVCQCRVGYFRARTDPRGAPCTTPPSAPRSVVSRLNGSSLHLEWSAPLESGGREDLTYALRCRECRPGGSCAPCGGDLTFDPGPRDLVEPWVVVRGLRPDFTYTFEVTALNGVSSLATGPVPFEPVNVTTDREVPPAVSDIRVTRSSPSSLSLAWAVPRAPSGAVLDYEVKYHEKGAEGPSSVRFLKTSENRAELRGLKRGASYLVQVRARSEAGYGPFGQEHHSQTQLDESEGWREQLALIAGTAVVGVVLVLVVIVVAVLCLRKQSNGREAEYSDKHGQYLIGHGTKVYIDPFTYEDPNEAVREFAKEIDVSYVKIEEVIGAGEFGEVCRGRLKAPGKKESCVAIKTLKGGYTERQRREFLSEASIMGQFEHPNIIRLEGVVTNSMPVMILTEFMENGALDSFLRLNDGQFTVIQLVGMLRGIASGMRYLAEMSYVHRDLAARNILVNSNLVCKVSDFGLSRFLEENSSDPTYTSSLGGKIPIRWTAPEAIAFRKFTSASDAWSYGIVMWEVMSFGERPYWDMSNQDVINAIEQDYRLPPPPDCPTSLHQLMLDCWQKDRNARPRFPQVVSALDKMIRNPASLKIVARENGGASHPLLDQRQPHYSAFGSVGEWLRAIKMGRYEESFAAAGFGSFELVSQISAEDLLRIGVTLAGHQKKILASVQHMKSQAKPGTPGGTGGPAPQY
# [9] = molecular target: RAF proto-oncogene serine/threonine-protein kinase (Homo sapiens, UniProt P04049); assay: Inhibition of c-Raf
# [10] = molecular target: Macrophage colony-stimulating factor 1 receptor (Homo sapiens, UniProt P07333)
# [11] = molecular target: Platelet-derived growth factor receptor alpha (Homo sapiens, UniProt P16234); assay: Inhibition of PDGFRalpha
# [12] = molecular target: Vascular endothelial growth factor receptor 3 (Homo sapiens, UniProt P35916); assay: Inhibition of Flt4
# [13] = molecular target: Cyclin-dependent kinase 2 (Homo sapiens, UniProt P24941); assay: Inhibition of CDK2/CyclinA
# [14] = molecular target: Vascular endothelial growth factor receptor 1 (Homo sapiens, UniProt P17948); assay: Inhibition of Flt1
# [15] = molecular target: Mast/stem cell growth factor receptor Kit (Homo sapiens, UniProt P10721); assay: Inhibition of Kit
# Ephrin type-B receptor 1 = molecular target: T2, Ephrin type-B receptor 1 (Homo sapiens, UniProt P54762); assay: Inhibition of EphB1
# T2 sequence (P54762 whole entry): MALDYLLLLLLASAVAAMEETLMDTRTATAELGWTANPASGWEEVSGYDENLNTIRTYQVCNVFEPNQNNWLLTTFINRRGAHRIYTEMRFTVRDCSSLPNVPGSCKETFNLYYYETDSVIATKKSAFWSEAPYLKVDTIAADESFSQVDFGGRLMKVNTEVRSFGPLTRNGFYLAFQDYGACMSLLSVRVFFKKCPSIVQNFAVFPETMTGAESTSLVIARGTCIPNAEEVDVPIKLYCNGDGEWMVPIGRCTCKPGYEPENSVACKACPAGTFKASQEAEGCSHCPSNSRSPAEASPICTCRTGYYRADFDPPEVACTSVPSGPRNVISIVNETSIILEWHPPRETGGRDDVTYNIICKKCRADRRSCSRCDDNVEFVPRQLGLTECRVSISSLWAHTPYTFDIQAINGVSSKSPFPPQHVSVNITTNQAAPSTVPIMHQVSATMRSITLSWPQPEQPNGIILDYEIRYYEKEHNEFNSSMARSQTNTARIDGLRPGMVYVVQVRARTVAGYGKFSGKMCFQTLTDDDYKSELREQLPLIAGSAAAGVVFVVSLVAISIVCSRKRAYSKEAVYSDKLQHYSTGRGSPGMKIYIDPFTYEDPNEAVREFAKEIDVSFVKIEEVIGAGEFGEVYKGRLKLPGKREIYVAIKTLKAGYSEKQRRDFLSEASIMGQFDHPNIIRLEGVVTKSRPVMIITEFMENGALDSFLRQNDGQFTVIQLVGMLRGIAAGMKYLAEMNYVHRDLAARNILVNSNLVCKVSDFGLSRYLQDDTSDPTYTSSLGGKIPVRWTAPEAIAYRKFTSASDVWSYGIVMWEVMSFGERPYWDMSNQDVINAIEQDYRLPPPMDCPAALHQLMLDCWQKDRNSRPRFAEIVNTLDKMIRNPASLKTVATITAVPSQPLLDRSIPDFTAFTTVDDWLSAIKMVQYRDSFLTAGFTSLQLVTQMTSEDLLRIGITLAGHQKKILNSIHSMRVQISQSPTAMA
# [16] = Cmax in rat at 5 mg/kg, po; assay type: ADME, organism-based; parameters: dose 5 mg/kg, route oral; details: in vivo
# [17] = Inhibition of Abl […] mutant
# [18] = Inhibition of Aurora kinase
# [19] = Half life in rat at 5 mg/kg, po; assay type: ADME, organism-based; parameters: dose 5 mg/kg, route oral; details: in vivo
# Sequence of Proto-oncogene tyrosine-protein kinase Src (P12931 2-536 limits assumed): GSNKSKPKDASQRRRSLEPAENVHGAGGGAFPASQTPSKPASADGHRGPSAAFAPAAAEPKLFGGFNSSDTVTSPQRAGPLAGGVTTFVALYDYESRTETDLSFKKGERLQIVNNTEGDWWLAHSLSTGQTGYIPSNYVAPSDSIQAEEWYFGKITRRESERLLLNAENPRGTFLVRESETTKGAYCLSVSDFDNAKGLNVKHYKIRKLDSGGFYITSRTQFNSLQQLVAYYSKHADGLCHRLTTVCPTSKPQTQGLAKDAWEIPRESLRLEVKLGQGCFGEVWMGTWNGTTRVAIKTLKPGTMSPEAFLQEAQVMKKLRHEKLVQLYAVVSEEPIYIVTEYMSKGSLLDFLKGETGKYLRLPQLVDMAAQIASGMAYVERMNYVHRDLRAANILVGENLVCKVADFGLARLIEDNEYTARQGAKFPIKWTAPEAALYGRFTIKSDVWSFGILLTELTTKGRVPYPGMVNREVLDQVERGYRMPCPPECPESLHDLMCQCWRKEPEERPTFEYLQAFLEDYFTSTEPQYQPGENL
# Sequence of Tyrosine-protein kinase ABL1 (P00519 whole entry): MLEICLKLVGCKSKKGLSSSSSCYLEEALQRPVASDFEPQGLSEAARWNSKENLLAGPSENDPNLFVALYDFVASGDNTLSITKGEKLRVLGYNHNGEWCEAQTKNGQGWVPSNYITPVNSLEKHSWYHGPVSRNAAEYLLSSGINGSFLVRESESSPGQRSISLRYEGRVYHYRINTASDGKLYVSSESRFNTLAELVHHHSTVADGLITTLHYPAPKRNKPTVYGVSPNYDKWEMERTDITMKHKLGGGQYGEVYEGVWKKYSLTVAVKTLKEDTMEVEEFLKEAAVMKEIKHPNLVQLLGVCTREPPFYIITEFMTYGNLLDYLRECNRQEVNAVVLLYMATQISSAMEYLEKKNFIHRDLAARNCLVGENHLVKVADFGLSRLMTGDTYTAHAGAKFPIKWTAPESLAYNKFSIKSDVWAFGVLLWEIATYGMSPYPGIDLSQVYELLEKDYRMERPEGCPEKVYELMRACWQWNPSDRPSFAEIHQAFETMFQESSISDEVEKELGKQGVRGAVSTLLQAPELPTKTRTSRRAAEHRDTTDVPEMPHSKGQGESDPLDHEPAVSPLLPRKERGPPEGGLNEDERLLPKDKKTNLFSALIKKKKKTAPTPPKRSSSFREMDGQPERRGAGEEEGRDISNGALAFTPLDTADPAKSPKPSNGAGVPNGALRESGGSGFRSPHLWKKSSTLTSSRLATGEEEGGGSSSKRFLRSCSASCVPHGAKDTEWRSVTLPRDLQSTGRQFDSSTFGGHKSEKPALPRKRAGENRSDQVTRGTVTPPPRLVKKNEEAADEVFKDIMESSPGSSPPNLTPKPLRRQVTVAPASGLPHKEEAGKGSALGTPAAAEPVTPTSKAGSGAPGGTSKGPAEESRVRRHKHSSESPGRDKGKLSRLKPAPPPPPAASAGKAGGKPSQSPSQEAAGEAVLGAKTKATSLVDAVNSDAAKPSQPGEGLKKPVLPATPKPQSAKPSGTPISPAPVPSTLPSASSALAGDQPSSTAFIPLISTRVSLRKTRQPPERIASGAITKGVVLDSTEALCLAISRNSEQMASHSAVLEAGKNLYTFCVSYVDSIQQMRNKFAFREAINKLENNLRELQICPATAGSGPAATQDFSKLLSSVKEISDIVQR
# Sequence of Mast/stem cell growth factor receptor Kit (P10721 whole entry): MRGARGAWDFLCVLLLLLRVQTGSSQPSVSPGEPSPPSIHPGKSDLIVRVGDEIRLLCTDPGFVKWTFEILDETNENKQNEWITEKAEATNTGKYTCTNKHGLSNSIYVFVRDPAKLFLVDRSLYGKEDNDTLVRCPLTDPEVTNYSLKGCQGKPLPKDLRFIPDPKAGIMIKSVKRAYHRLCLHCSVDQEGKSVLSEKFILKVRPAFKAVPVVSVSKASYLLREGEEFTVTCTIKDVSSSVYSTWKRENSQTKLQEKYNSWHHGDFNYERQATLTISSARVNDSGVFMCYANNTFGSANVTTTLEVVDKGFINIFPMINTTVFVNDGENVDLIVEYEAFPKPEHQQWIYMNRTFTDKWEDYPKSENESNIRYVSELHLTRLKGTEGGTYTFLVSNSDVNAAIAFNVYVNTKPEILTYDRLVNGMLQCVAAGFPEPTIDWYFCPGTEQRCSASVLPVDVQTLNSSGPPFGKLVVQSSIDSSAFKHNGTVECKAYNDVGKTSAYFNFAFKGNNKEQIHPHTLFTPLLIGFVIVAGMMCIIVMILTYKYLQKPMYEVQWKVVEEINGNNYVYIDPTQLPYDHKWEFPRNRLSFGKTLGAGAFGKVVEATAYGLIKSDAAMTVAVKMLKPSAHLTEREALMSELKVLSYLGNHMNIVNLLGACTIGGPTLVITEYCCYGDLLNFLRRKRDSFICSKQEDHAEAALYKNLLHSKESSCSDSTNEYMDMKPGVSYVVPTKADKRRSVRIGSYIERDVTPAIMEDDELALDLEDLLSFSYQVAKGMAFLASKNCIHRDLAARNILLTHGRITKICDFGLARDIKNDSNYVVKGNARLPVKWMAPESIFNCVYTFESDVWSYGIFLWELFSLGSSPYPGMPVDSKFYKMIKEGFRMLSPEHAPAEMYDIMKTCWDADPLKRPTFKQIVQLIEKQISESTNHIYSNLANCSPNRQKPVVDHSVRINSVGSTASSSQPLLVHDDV
# Sequence of Platelet-derived growth factor receptor alpha (P16234 whole entry): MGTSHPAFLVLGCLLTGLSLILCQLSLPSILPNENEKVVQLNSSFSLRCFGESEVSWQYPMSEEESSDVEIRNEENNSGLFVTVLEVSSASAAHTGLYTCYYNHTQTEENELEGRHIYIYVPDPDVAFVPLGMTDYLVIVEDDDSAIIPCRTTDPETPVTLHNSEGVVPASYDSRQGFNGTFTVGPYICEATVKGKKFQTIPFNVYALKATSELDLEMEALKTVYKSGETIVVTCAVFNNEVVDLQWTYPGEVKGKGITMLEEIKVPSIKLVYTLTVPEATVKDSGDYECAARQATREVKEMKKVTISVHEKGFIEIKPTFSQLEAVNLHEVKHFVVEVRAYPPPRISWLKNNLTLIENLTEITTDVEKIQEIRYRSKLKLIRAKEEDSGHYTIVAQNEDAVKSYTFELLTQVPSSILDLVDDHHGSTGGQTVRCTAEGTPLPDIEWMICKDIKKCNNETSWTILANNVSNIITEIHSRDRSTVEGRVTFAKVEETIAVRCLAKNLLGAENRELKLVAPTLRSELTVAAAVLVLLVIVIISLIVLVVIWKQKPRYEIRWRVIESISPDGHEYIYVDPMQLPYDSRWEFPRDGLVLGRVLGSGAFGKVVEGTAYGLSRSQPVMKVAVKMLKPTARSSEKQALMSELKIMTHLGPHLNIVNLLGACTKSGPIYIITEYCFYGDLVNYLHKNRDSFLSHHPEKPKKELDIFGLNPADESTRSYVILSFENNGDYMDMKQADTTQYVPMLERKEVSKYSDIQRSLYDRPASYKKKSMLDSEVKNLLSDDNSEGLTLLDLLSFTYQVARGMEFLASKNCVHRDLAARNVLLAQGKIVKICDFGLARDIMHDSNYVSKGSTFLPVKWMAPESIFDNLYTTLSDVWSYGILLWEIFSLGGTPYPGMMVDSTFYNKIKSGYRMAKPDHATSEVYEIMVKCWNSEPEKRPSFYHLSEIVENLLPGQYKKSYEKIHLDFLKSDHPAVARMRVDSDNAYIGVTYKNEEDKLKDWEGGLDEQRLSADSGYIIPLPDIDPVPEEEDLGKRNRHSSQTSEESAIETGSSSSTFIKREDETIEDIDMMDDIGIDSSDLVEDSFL
# Sequence of Vascular endothelial growth factor receptor 3 (P35916 whole entry): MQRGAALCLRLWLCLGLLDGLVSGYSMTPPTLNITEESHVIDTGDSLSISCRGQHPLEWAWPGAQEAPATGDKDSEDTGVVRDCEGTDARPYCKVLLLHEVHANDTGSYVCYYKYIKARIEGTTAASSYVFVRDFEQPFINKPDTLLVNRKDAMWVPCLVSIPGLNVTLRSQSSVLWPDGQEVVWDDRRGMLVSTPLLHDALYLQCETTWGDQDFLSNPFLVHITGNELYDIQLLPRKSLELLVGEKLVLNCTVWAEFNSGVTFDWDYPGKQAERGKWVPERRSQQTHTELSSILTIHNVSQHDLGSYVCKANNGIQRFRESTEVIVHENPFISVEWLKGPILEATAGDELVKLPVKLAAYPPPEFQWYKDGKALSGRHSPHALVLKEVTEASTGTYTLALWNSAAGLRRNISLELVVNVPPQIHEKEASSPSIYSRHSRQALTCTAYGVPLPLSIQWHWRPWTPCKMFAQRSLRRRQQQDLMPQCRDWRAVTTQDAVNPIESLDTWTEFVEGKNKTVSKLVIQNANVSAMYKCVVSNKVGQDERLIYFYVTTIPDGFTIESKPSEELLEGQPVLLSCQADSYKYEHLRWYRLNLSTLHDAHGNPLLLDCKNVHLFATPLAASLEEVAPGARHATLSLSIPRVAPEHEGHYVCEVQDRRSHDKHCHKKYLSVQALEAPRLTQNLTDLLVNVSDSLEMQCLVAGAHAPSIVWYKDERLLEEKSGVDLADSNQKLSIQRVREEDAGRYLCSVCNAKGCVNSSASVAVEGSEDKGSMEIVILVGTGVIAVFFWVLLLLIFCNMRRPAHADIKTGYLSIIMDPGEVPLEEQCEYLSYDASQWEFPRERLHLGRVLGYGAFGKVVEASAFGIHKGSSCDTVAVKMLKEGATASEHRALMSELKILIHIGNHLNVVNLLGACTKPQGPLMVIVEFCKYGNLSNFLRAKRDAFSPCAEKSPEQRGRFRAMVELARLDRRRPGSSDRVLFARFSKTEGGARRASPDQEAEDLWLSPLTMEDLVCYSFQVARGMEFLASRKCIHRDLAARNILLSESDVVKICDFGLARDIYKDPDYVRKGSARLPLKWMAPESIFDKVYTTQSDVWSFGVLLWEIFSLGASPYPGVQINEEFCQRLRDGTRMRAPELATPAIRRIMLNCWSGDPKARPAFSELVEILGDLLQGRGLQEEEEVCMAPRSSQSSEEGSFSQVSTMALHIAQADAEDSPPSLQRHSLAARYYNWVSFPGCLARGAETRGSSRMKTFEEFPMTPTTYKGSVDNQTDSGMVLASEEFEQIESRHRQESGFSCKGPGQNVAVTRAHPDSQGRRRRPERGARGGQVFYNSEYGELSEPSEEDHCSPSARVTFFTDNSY
SMILES,IC50 [4] [nM],IC50 (K562) [nM],IC50 [6] [nM],IC50 [7] [nM],other results
CCCP(=O)(CCC)c1ccc(Nc2ncnc3c2ncn3/C=C/c2c(C)cccc2C)cc1,286,368,–,–,Vd [1]: 2.7 L/kg; Cmax [2]: 5140 ng/mL; bioavailability [3]: 0%; half-life [5]: 1.2 h
Cc1cccc(C)c1/C=C/n1cnc2c(Nc3ccc(P(C)(C)=O)cc3)nc(N(C)C)nc21,269,217,–,–,–
CP(C)(=O)c1ccc(Nc2ncnc3c2ncn3/C=C/c2cccc3[nH]ccc23)cc1,1540,954,–,–,–
CCCP(=O)(CCC)c1ccc(Nc2nc(C(C)C)nc3c2ncn3/C=C/c2ccccc2)cc1,–,> 1000,–,–,–
COCCOc1nc(Nc2ccc(P(C)(C)=O)cc2)c2ncn(/C=C/c3c(C)cccc3C)c2n1,51.7,26.7,1.57,< 0.46,–
CCCP(=O)(CCC)c1ccc(Nc2nc(C(C)C)nc3c2ncn3/C=C\c2c(C)cccc2C)cc1,–,964,–,–,–
Cc1cccc(C)c1/C=C/n1cnc2c(Nc3ccc(P(C)(C)=O)cc3)nc(-n3ccnc3)nc21,–,53.7,1.63,< 0.46,–
Cc1cccc(C)c1/C=C/n1cnc2c(Nc3ccc(P(C)(C)=O)cc3)nc(CCC#N)nc21,38.6,15.8,< 0.46,< 0.46,–
Cc1cccc(C)c1/C=C/n1cnc2c(Nc3ccc(P(C)(C)=O)cc3)ncnc21,168,109,3.58,8.31,IC50 [8]: > 1000 nM; IC50 (Insulin receptor): > 1000 nM; IC50 (Ephrin type-B receptor 4): 30 nM; IC50 [9]: 21 nM; Vd [1]: 0.98 L/kg; IC50 [10]: 3 nM; IC50 [11]: 221 nM; Cmax [2]: 4320 ng/mL; IC50 [12]: 151 nM; bioavailability [3]: 20%; IC50 [13]: > 1000 nM; IC50 [14]: 591 nM; IC50 [15]: 414 nM; IC50 (Ephrin type-B receptor 1): 6 nM; Cmax [16]: 1280 ng/mL; IC50 [17]: > 1000 nM; IC50 [18]: > 1000 nM; half-life [5]: 3.93 h; half-life [19]: 5 h
CCCP(=O)(CCC)c1ccc(Nc2nc(C(C)C)nc3c2ncn3/C=C/c2c(C)cccc2C)cc1,122,115,–,–,–
Cc1cccc(C)c1/C=C/n1cnc2c(Nc3ccc(P(C)(C)=O)cc3)nc(Oc3cccnc3)nc21,35.1,8.5,0.5,< 0.46,–
CP(C)(=O)c1ccc(Nc2ncnc3c2ncn3/C=C/c2cccc3[nH]ncc23)cc1,850,355,–,–,–
Cc1ccc2[nH]ncc2c1/C=C/n1cnc2c(Nc3ccc(P(C)(C)=O)cc3)ncnc21,37.3,10.5,< 0.46,< 0.46,Vd [1]: 1.9 L/kg; Cmax [2]: 7080 ng/mL; bioavailability [3]: 0%; Cmax [16]: 22 ng/mL; half-life [5]: 1.2 h
Cc1cccc(C)c1/C=C/n1cnc2c(Nc3ccc(P(C)(C)=O)cc3)nc(N3CCN(C)CC3)nc21,73.7,23.5,6.8,< 0.23,–
Cc1cccc(C)c1/C=C/n1cnc2c(Nc3ccc(P(C)(C)=O)cc3)nc(C3CCN(C)CC3)nc21,285,28,< 0.46,< 0.46,–
Cc1cccc(C)c1/C=C/n1cnc2c(Nc3ccc(P(C)(C)=O)cc3)nc(C3CCCC3)nc21,–,224,–,–,–
CCCP(=O)(CCC)c1ccc(Nc2nc(C(C)C)nc3c2ncn3/C=C\c2ccccc2)cc1,–,> 1000,–,–,–
Cc1cccc(C)c1/C=C/n1cnc2c(Nc3ccc(P(C)(C)=O)cc3)nc(N3CCCC3)nc21,123,89.1,–,–,–
Cc1cccc(Cl)c1/C=C/n1cnc2c(Nc3ccc(P(C)(C)=O)cc3)ncnc21,200,109,–,–,Vd [1]: 2.74 L/kg; Cmax [2]: 4590 ng/mL; bioavailability [3]: 17%; Cmax [16]: 1680 ng/mL; half-life [5]: 2.74 h; half-life [19]: 3.3 h
Cc1cccc(C)c1/C=C/n1cnc2c(Nc3ccc(P(C)(C)=O)cc3)nc(C(C)C)nc21,27.1,22.7,–,–,Vd [1]: 5.4 L/kg; Cmax [2]: 1220 ng/mL; bioavailability [3]: 25%; Cmax [16]: 478 ng/mL; half-life [5]: 7.5 h; half-life [19]: 5.1 h
COc1nc(Nc2ccc(P(C)(C)=O)cc2)c2ncn(/C=C/c3c(C)cccc3C)c2n1,32.7,52.4,1.8,< 0.46,–
Cc1cccc(C)c1/C=C/n1cnc2c(Nc3ccc(P(C)(C)=O)cc3)nc(N3CCOCC3)nc21,20.8,–,3.02,< 0.23,–
CP(C)(=O)c1ccc(Nc2ncnc3c2ncn3/C=C/c2ccccc2Cl)cc1,2010,1390,–,–,–
Cc1cccc(C)c1/C=C/n1cnc2c(Nc3ccc(P(C)(C)=O)cc3)nc(OC(C)C)nc21,34.8,40.6,7.32,< 0.46,–
